Source: patent US6528517B1, “Synthesis of quinobenzoxazine analogues with topoisomerase II and quadruplex interactions for use as antineoplastic agents” (Board of Regents, The University of Texas System, priority 1998, dated 2003)

Tests used:
human topoisomerase II = molecular target: T1, human topoisomerase II (Homo sapiens, UniProt P11388); experiment: Decatenation assay (catenated to decatenated KDNA); type: biochemical; settings: drug concentration that inhibits 50% of conversion of catenated to decatenated KDNA; read-out: topoisomerase II inhibition IC50
T1 construct: purchased TopoGEN, Inc

topo II-DNA complex = molecular target: T2, topo II-DNA complex (Drosophila melanogaster, UniProt P15348); experiment: Psorospermin competition study (DNA strand breakage assay); type: biochemical
T2 construct: purchased Amersham
T2 sequence (P15348 1-1447): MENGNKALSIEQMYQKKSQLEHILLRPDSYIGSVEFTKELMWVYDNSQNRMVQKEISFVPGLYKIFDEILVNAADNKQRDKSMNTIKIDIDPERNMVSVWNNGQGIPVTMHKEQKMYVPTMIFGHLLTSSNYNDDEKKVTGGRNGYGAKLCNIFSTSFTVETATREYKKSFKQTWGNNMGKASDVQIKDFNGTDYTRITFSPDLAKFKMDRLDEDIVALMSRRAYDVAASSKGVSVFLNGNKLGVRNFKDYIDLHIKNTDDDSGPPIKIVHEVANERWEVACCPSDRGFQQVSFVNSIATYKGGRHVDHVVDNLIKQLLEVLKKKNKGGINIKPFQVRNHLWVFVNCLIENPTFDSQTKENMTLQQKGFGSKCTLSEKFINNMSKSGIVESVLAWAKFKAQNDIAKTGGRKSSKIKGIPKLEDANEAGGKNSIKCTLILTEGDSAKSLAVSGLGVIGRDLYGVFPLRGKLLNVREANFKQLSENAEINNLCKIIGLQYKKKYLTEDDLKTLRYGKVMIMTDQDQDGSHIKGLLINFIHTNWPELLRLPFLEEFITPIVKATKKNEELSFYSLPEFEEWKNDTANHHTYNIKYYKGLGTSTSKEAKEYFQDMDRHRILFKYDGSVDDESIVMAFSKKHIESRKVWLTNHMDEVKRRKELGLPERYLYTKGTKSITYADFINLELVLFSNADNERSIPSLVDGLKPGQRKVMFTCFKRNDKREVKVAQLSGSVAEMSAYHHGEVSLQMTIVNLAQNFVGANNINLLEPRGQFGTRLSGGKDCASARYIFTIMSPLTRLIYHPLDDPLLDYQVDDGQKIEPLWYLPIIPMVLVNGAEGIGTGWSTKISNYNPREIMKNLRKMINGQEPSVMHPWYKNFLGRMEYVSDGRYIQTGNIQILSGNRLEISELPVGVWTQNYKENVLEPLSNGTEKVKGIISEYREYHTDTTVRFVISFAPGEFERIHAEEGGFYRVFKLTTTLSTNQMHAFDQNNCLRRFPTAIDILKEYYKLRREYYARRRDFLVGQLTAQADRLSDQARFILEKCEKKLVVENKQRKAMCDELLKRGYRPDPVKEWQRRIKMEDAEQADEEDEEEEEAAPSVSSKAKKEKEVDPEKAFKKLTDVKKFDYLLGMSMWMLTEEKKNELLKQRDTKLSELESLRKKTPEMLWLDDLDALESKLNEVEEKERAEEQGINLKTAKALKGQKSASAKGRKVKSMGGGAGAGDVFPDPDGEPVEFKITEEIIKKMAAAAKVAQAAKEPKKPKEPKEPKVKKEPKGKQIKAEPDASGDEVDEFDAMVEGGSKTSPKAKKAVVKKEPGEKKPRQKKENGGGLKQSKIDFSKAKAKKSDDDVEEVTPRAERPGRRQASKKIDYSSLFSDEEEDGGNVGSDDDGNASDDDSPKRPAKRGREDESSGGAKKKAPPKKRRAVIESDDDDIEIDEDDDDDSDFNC
Description: 5′^32P-labeled DNA was incubated with Drosophila topo II in the same buffer as the one in the topo II cleavage reaction in the presence of various amounts of either A-62176, Norfloxacin, or both. The incubation reactions took place at 30° C. for 10 min before 10 μM (final concentration) of psorospermin was added to the mixtures. The reactions were continued for an additional 5 min and then terminated by adding 5 μg of calf thymus DNA, followed by heating at 95° C. for 15 min. In the presence of piperidine, this procedure induces strand breakage at the drug modification sites (Hansen et al., 1996). The samples were subjected to phenol/chloroform extraction followed by ethanol precipitation.
In the presence of topo II, the reactivity of psorospermin is enhanced more than 40-fold with the guanine at the +4′ position at site B in FIG. 7 (Kwok et al., 1998a and 1998b). A DNA strand breakage assay was used to locate the position of alkylation of DNA by the epoxide of psorospermin upon intercalation to the base pairs between the +1 and +2 positions at site B within the topo II-DNA complex (Kwok et al., 1998a). Psorospermin has subsequently been used to probe the binding sites for m-AMSA (Kwok et al., 1998a). In the present study, this same assay was performed to determine the binding site of A-62176 on DNA in the presence of topo II.

B16 melanoma = experiment: Cancer cell growth inhibition assay (MTT); type: cell-based, murine; settings: Mus musculus, B16

T1 sequence (P11388 whole entry): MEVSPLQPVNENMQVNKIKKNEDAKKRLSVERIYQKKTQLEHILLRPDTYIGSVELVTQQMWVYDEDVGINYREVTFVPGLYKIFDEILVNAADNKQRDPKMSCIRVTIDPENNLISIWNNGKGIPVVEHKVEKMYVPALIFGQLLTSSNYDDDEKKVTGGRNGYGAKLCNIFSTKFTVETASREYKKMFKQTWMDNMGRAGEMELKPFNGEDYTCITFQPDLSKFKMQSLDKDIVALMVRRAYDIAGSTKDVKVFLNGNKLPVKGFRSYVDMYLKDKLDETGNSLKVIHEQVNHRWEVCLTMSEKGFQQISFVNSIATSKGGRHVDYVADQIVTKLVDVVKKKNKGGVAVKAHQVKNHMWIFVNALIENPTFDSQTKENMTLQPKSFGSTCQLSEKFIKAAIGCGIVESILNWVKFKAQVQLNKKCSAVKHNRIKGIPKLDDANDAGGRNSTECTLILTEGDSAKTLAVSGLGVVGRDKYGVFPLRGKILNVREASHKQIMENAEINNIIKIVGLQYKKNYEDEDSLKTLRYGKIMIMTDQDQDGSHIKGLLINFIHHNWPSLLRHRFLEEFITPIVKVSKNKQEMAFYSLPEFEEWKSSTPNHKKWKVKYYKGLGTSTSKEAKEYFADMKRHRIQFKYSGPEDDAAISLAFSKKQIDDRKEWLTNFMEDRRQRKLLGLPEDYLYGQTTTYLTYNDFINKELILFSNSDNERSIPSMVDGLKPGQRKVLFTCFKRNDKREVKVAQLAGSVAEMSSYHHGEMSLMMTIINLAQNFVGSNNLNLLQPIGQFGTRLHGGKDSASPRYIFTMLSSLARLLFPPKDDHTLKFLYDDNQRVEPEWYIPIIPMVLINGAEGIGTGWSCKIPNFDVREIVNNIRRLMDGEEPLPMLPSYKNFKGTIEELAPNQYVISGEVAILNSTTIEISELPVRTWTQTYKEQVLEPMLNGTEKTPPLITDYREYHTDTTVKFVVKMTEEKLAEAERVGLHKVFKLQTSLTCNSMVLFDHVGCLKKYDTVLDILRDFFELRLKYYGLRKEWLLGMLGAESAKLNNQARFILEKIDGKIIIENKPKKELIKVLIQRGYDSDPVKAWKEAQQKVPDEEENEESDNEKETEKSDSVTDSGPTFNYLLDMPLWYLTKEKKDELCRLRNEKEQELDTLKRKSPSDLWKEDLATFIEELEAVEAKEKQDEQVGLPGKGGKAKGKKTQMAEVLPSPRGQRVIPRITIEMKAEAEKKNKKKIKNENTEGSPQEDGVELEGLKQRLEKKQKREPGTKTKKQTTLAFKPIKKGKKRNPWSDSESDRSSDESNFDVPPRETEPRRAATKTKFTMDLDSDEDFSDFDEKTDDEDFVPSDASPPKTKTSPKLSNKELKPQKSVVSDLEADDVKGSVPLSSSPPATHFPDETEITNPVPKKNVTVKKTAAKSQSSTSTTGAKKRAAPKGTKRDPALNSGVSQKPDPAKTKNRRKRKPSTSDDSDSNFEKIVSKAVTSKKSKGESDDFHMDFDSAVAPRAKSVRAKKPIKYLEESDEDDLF

`N[C@H]1CCN(c2c(F)cc3c(=O)c(C(=O)O)cn4c3c2Oc2ccccc2-4)C1` [Compound A-62176, 1-(3-aminopyrrolidin-1-yl)-2-fluoro-4-oxo-4H-quino[2,3,4-i,j][1,4]benzoxazine-5-carboxylic acid, reference compound] was tested, and the IC50 (human topoisomerase II) was 510 nM, the “psorospermin alkylation at site B (competition)” value (topo II-DNA complex; 0.5-10 μM drug, psorospermin, topo II present) was “decreased” and the “inhibition of psorospermin alkylation, in combination with Norfloxacin” value (topo II-DNA complex; after subtracting the enhancement by Norfloxacin alone) was “additive effect”. It also gave an IC50 (B16 melanoma) of 170 ± 10 nM.
